Test results from DBAASP.
Values after ≈ are worked out from the molar mass of the structure shown. Each block holds one molecule with its values, some of them ahead of it.

Assays:
Experiment in all cases: ≥ marks a high value that may be exact or a test limit, other limits are often not marked, values filed in µg/mL are converted to µM
[1] = test system: Micrococcus luteus ATCC 10420
[2] = test system: Staphylococcus aureus ATCC 29213
[3] = test system: Escherichia coli ATCC 25404
[4] = test system: Escherichia coli O157
[5] = test system: Listeria monocytogenes
[6] = test system: Staphylococcus aureus ATCC 43300
[7] = test system: Staphylococcus epidermidis ATCC 9709
[8] = test system: Salmonella typhimurium
[9] = test system: Staphylococcus aureus ATCC 25923
[10] = test system: Candida albicans ATCC 90028
[11] = test system: Acinetobacter baumannii NM8
[12] = test system: Staphylococcus epidermidis RP62A
[13] = test system: Klebsiella pneumoniae ATCC 700603
[14] = test system: Stenotrophomonas maltophilia B32/4
[15] = test system: Staphylococcus epidermidis RP62A/1
[16] = test system: Pseudomonas aeruginosa ATCC 27853
[17] = test system: Escherichia coli ATCC 25726
[18] = test system: Escherichia coli CCARM 1238
[19] = test system: Staphylococcus aureus CCARM 3089
[20] = test system: Pseudomonas aeruginosa KCTC 1637
[21] = test system: Escherichia coli KCTC 1682
[22] = test system: Staphylococcus aureus CCARM 3108
[23] = test system: Salmonella typhimurium CCARM 8007
[24] = test system: Bacillus subtilis KCTC 1918
[25] = test system: Salmonella typhimurium CCARM 8013
[26] = test system: Staphylococcus aureus CCARM 3090
[27] = test system: Candida albicans CCARM 14007
[28] = test system: Staphylococcus aureus CCARM 3114
[29] = test system: Listeria monocytogenes KCTC 3710
[30] = test system: Staphylococcus aureus CCARM 3126
[31] = test system: Candida albicans CCARM 14001
[32] = test system: Escherichia coli CCARM 1229
[33] = test system: Candida albicans KCTC 7270
[34] = test system: Salmonella typhimurium CCARM 8009
[35] = test system: Staphylococcus aureus KCTC 1621
[36] = test system: Salmonella typhimurium KCTC 1926
[37] = test system: Beauveria bassiana CGMCC 3.3576
[38] = test system: Corynebacterium glutamicum CGMCC 1.818
[39] = test system: Tetragenococcus halophilus CGMCC 1.2492
[40] = test system: Salmonella typhimurium CGMCC 1.1174
[41] = test system: Proteus vulgaris CGMCC 1.1651
[42] = test system: Aspergillus flavus CGMCC 3.6433
[43] = test system: Saccharomyces cerevisiae CGMCC 2.1619
[44] = test system: Alcaligenes faecalis CGMCC 1.924
[45] = test system: Acetobacterium wieringae CGMCC 1.2033
[46] = test system: Escherichia coli CGMCC 1.1369
[47] = test system: Enterobacter cloacae CGMCC 1.58
[48] = test system: Klebsiella aerogenes CGMCC 1.2021
[49] = test system: Bacillus subtilis CGMCC 1.88
[50] = test system: Micrococcus luteus AB206228
[51] = test system: Pseudomonas aeruginosa CMCC 10104
[52] = test system: Candida albicans CMCC 98001
[53] = test system: Penicillium sp. ATCC 30106
[54] = test system: Bacillus cereus CMCC 1.126
[55] = test system: Bacillus thuringiensis serovar israelensis H14
[56] = test system: Enterococcus faecalis CGMCC 1.100
[57] = test system: Providencia rettgeri CMCC 49256

MIC [1]: 2 µM (≈ 2.86 µg/mL)
MIC [2]: 4 µM (≈ 5.72 µg/mL)
MIC [3]: ≥ 64 µM
MIC [4]: ≥ 64 µM
MIC [5]: 8 µM (≈ 11.4 µg/mL)
MIC [6]: 4 µM (≈ 5.72 µg/mL)
MIC [7]: 4 µM (≈ 5.72 µg/mL)
MIC [8]: ≥ 64 µM
Structure (SMILES): CC(C)C[C@H](NC(=O)[C@H](CC(C)C)NC(=O)[C@H](CCCCN)NC(=O)[C@H](CO)NC(=O)[C@H](CC(C)C)NC(=O)[C@H](C)NC(=O)[C@H](Cc1cnc[nH]1)NC(=O)[C@H](Cc1ccccc1)NC(=O)[C@H](CC(C)C)NC(=O)[C@H](C)NC(=O)CNC(=O)[C@H](CC(C)C)NC(=O)[C@@H](N)Cc1ccccc1)C(=O)O [FLGALFHALSKLL]

MIC [9]: 64 µM (≈ 106 µg/mL)
MIC [10]: ≥ 32 µM
MIC [11]: 16 µM (≈ 26.5 µg/mL)
MIC [12]: ≥ 32 µM
MIC [13]: 128 µM (≈ 212 µg/mL)
MIC [14]: ≥ 32 µM
MIC [15]: 16 µM (≈ 26.5 µg/mL)
MIC [16]: 128 µM (≈ 212 µg/mL)
MIC [17]: ≥ 32 µM
Structure (SMILES): CC[C@H](C)[C@H](N)C(=O)N[C@@H](CC(C)C)C(=O)N[C@@H](CCCCN)C(=O)N[C@@H](CCCCN)C(=O)N[C@@H](CC(C)C)C(=O)N[C@@H](CC(C)C)C(=O)N[C@@H](CO)C(=O)N[C@H](C(=O)N[C@@H](C)C(=O)N[C@@H](C)C(=O)NCC(=O)N[C@@H](CC(C)C)C(=O)N[C@@H](CC(C)C)C(=O)N[C@@H](CO)C(=O)N[C@@H](CC(N)=O)C(=O)N[C@@H](CC(C)C)C(N)=O)[C@@H](C)O [ILKKLLSTAAGLLSNL]

MIC [18]: ≥ 200 µM
MIC [19]: ≥ 200 µM
MIC [20]: ≥ 200 µM
MIC [21]: ≥ 200 µM
MIC [22]: ≥ 200 µM
MIC [23]: ≥ 309 µM
MIC [24]: ≥ 200 µM
MIC [25]: ≥ 200 µM
MIC [26]: ≥ 200 µM
MIC [27]: ≥ 128 µM
MIC [28]: ≥ 200 µM
MIC [29]: ≥ 200 µM
MIC [30]: ≥ 200 µM
MIC [31]: ≥ 128 µM
MIC [32]: ≥ 200 µM
MIC [33]: ≥ 128 µM
MIC [34]: ≥ 200 µM
MIC [35]: ≥ 200 µM
MIC [36]: ≥ 200 µM
Structure (SMILES): NCCCC[C@H](NC(=O)[C@H](Cc1c[nH]c2ccccc12)NC(=O)[C@@H](N)CCCCN)C(=O)N[C@@H](Cc1c[nH]c2ccccc12)C(N)=O [KWKW]

MIC [37]: 6.2 µM (≈ 17.9 µg/mL)
MIC [38]: 3.1 µM (≈ 8.95 µg/mL)
MIC [39]: 3.1 µM (≈ 8.95 µg/mL)
MIC [40]: 12.5 µM (≈ 36.1 µg/mL)
MIC [41]: 6.2 µM (≈ 17.9 µg/mL)
MIC [42]: 3.1 µM (≈ 8.95 µg/mL)
MIC [43]: ≥ 50 µM
MIC [44]: 3.1 µM (≈ 8.95 µg/mL)
MIC [45]: 3.1 µM (≈ 8.95 µg/mL)
MIC [46]: 25 µM (≈ 72.2 µg/mL)
MIC [47]: ≥ 50 µM
MIC [48]: 12.5 µM (≈ 36.1 µg/mL)
MIC [49]: 12.5 µM (≈ 36.1 µg/mL)
MIC [50]: 3.1 µM (≈ 8.95 µg/mL)
MIC [51]: 6.2 µM (≈ 17.9 µg/mL)
MIC [52]: ≥ 50 µM
MIC [53]: 3.1 µM (≈ 8.95 µg/mL)
MIC [54]: 6.2 µM (≈ 17.9 µg/mL)
MIC [55]: 12.5 µM (≈ 36.1 µg/mL)
MIC [56]: 25 µM (≈ 72.2 µg/mL)
MIC [57]: 6.2 µM (≈ 17.9 µg/mL)
Structure (SMILES): CC[C@H](C)[C@H](NC(=O)[C@H](Cc1ccccc1)NC(=O)[C@H](CCCCN)NC(=O)[C@H](C)NC(=O)[C@@H](NC(=O)[C@H](CO)NC(=O)[C@H](CCCCN)NC(=O)[C@H](CCSC)NC(=O)[C@H](C)NC(=O)[C@H](CCCCN)NC(=O)[C@H](Cc1ccccc1)NC(=O)[C@H](Cc1c[nH]c2ccccc12)NC(=O)CNC(=O)[C@H](CCCCN)NC(=O)[C@@H](N)CCCN=C(N)N)[C@@H](C)CC)C(=O)N[C@@H](C)C(=O)N[C@@H](CCCCN)C(=O)N[C@@H](CCC(=O)O)C(=O)N[C@@H](CCCCN)C(=O)N[C@@H](CC(C)C)C(=O)N[C@@H](CCCCN)C(=O)N[C@@H](CCC(=O)O)C(=O)N[C@@H](Cc1cnc[nH]1)C(=O)N[C@@H](CC(C)C)C(=O)O [RKGWFKAMKSIAKFIAKEKLKEHL]
